US10363252B2, “Treatment of prostate cancer using hedgehog pathway inhibitors” (HEDGEPATH PHARMACEUTICALS, INC., priority 2013, dated 2019)

Legend:
[1] = plasma trough level of itraconazole required for clinical benefit in humans with cancer; format: in vivo, human
Protocol: In particular, the minimum plasma trough level after 4 weeks of therapy required to have a clinically significant effect was at least 1000 ng/ml. Achieving these levels of itraconazole is enhanced by the use of formulations with greater bioavailability such as SUBA-CAP™ formulation. […] These side effects associated with these high doses of itraconazole can be effectively managed by giving a selective mineralocorticoid antagonist, such as eplerenone. Accordingly, in some embodiments, the method further comprises administering eplerenone or other mineralocorticoid inhibitor.

HhP = conditions: major metabolite of itraconazole; cited from earlier work

In the case of `CCC(C)n1ncn(-c2ccc(N3CCN(c4ccc(OCC5COC(Cn6cncn6)(c6ccc(Cl)cc6Cl)O5)cc4)CC3)cc2)c1=O` (stereo not drawn) [itraconazole], the “side-effects peculiar to high doses” value ([1]; high doses of itraconazole) is reported as “hypertension, peripheral edema, and hypokalemia” and the concentration at 4 weeks ([1]; human, plasma, after 4 weeks of therapy, humans with cancer, read-out: minimum plasma trough level required to have a clinically significant effect) is reported as no less than 1000 ng/mL.

In the case of hydroxy-itraconazole, the “potency as a HhP inhibitor relative to itraconazole” value (HhP) is given as “not equipotent”.
